Data: US11801257B2, “Stimulation of an immune response by enantiomers of cationic lipids” (PDS Biotechnology Corporation, priority 2008, dated 2023)

Columns and labels:
DC2.4 dendritic cells = details: cited from earlier work; for ability to stimulate the expression of CD 80 on DC 2.4 cells (relative potency): comparison by head group and acyl chain; for expression of CD80/CD86: liposomes, DC2.4 cells
TC-1 HPV-positive tumors = assay: TC-1 HPV-positive tumor growth in mice treated with cationic lipid/E7 compositions; type: in vivo; details: for ability to eradicate HPV-E7 positive tumors in tumor-bearing mice (tumor regression): lipid/E7 formulations, multiple lipid doses, summary statements
Experimental: TC-1 cells are C57BL/6 mouse lung […] cells that have been transformed with the HPV16 E6 and E7 oncogenes and activated H-ras. Cells were grown in RPMI medium (commercially available from Invitrogen of Carlsbad, CA) supplemented with 10% fetal bovine serum and 100 U/ml penicillin, and […] streptomycin. The MHC class I restricted peptide from the HPV 16 E7 protein (amino acid 11 to 20, YMLDLQPETT [SEQ. ID. NO. 1]) was synthesized by the University of Pittsburgh Peptide Synthesis Facility by solid state synthesis using an Advanced ChemTech model 200 peptide synthesizer and purified by HPLC.
In FIG. 12, mice were subcutaneously injected with TC-1 cells on day 0 in order to induce the growth of HPV-positive tumors. The DOTAP/E7 compositions were comprised of racemic mixtures of DOTAP. The mice received DOTAP/E7 compositions containing 10 μg E7 peptide subcutaneously on the opposite side of the abdomen on day 6.
In FIGS. 13 and 14, mice were subcutaneously injected with TC-1 cells on day 0 in order to induce the growth of HPV-positive tumors. The mice received R and S-DOTAP/E7 compositions containing 20 μg E7 peptide subcutaneously on the opposite side of the abdomen on day 6. R or S-DOTAP lipid concentrations in the complex varied from 3 to 600 nmole (3, 15, 30, 75, 100, 125, 150, 300, and 600 nmole).

human T lymphocytes = details: cited from earlier work
[1] = system: Human HLA-A2 dendritic cells; assay: Chemokine and cytokine production by human dendritic cells (Searchlight Protein Array Multiplex ELISA); type: cell-based; details: 40 micromolar complex
Experimental: Human HLA-A2 dendritic cells (Lonza, Walkersville, MD), were treated and grown in culture as described above. On day 3 the cells were treated with 40 micromolar DOTAP/E7 complex or the potent immunostimulator lipopolysaccharide (LPS) at 50 micromolar concentrations (positive control). Medium from assay wells was removed and centrifuged at 1300 rpm in a microfuge for 5 minutes to pellet unattached dendritic cells. The supernatants were removed and treated with 10 microliters per ml of Calbiochem (La Jolla, CA) protease inhibitor cocktail set I (Cat. No. 539131) and stored frozen prior to analysis. Samples were analyzed for chemokine and cytokine expression by Searchlight Protein Array Multiplex ELISA assay [Pierce Biotechnology (Woburn, MA)].

purified human T-cells = assay: Induction of human T-cell proliferation by R and S enantiomers of DOTAP; type: cell-based
Source text: In the present studies, the induction of human T-cell proliferation by the R and S enantiomers of DOTAP was investigated and confirmed using purified T-cells obtained from Lonza, MA.

[2] = lipid 600 nmole with 20 μg E7 peptide, s.c. day 6 (S-DOTAP P<0.05)

Compound: CCCCCCCCCCCCCC(=O)OCC(COP(=O)(OCC)OCC[N+](C)(C)C)OC(=O)CCCCCCCCCCCCC (stereo not drawn) [DMEPC-14:0, 1,2-dimyristoyl-sn-glycero-3-ethylphosphocholine]
- ability to stimulate the expression of CD 80 on DC 2.4 cells (relative potency) (DC2.4 dendritic cells): more potent

Compound: CCCCCCCCCCCCCCOC(=O)CC[C@H](NC(=O)[C@@H](N)CCCCN)C(=O)OCCCCCCCCCCCCCC [DMKD, O,O′-dimyristyl-N-lysyl-glutamate]
- expression of CD80/CD86 (DC2.4 dendritic cells): strongly stimulated

Compound: CCCCCCCCCCCCCCOC(=O)C[C@H](NC(=O)[C@@H](N)CCCCN)C(=O)OCCCCCCCCCCCCCC [DMKE, O,O′-dimyristyl-N-lysyl aspartate]
- expression of CD80/CD86 (DC2.4 dendritic cells): strongly stimulated

Compound: CCCCCCCC/C=C\CCCCCCCC(=O)OC[C@@H](COP(=O)(OCC)OCC[N+](C)(C)C)OC(=O)CCCCCCC/C=C\CCCCCCCC (stereo partly drawn) [DOEPC-18:1, 1,2-dioleoyl-sn-glycero-3-ethylphosphocholine]
- ability to stimulate the expression of CD 80 on DC 2.4 cells (relative potency) (DC2.4 dendritic cells): more potent

Compound: CCCCCCCC/C=C\CCCCCCCC(=O)OC[C@H](COP(=O)(O)OCC(O)CO)OC(=O)CCCCCCC/C=C\CCCCCCCC (stereo partly drawn) [DOPG, 1,2-dioleoyl-sn-glycero-3-phosphoglycerol]
- inhibition of tumor growth (TC-1 HPV-positive tumors; anionic lipid liposomes 150 nmole with antigen): failed to significantly inhibit tumor growth

Compound: CCCCCCCC/C=C\CCCCCCCC(=O)OC[C@@H](C[N+](C)(C)C)OC(=O)CCCCCCC/C=C\CCCCCCCC [DOTAP, 1,2-dioleoyl-3-trimethylammoninum propane]
- inhibition of tumor growth (TC-1 HPV-positive tumors; liposomes 100 nmole, without E7 peptide): did not show significant inhibition of tumor growth
- tumor growth versus untreated control on day 23 (TC-1 HPV-positive tumors; racemic DOTAP 15 nmole with 10 μg E7 peptide, s.c. day 6, P<0.05): partial tumor inhibition effect
- tumor growth versus untreated control on day 23 (TC-1 HPV-positive tumors; racemic DOTAP 30 nmole with 10 μg E7 peptide, s.c. day 6, P<0.01): enhanced efficacy
- tumor growth versus untreated control on day 23 (TC-1 HPV-positive tumors; racemic DOTAP 75 nmole with 10 μg E7 peptide, s.c. day 6, P<0.001): most significant tumor regression effect
- tumor growth versus untreated control on day 23 (TC-1 HPV-positive tumors; racemic DOTAP 150 nmole with 10 μg E7 peptide, s.c. day 6, P<0.01): enhanced efficacy
- tumor growth versus untreated control on day 23 (TC-1 HPV-positive tumors; racemic DOTAP 300 nmole with 10 μg E7 peptide, s.c. day 6, P<0.01): enhanced efficacy
- tumor growth versus untreated control on day 23 (TC-1 HPV-positive tumors; racemic DOTAP 600 nmole with 10 μg E7 peptide, s.c. day 6): did not show anti-tumor activity
- expansion of T cell colonies in culture (human T lymphocytes; HLA-A2+ donor lymphocytes, three stimulations at 7-day interval, three days after third, versus medium control): extensive expansion of T cell colonies
- ERK phosphorylation in T cells (human T lymphocytes): confirmed by ERK phosphorylation
- expression of costimulatory molecule CD86 on human T lymphocytes (human T lymphocytes): induced expression of the costimulatory molecule, CD86

Compound: CCCCCCCCCCCC(=O)OC[C@H](COP(=O)(OCC)OCC[N+](C)(C)C)OC(=O)CCCCCCCCCCC (stereo partly drawn) [DXEPC-12:0, 1,2-dilauroyl-sn-glycero-3-ethylphosphocholine]
- ability to stimulate the expression of CD 80 on DC 2.4 cells (relative potency) (DC2.4 dendritic cells): more potent

Compound: CCCCCCCC/C=C\CCCCCCCC(=O)OC[C@@H](C[N+](C)(C)C)OC(=O)CCCCCCC/C=C\CCCCCCCC [R-DOTAP, 1,2-dioleoyl-3-trimethylammoninum propane]
- potency in inducing chemokine and cytokine production relative to DOTAP racemic mixture [1]: equivalent to or higher than
- potency in inducing chemokine and cytokine production, R versus S enantiomer [1]: more potent immune activator than S-DOTAP
- potency in inducing chemokine and cytokine production, R versus S enantiomer ([1]; listed as R-enantiomer): higher potency
- tumor growth versus untreated control on day 23 (TC-1 HPV-positive tumors; lipid 300 nmole with 20 μg E7 peptide, s.c. day 6, P<0.0001): most significant tumor regression efficacy
- tumor growth versus untreated control on day 23 (TC-1 HPV-positive tumors; [2]): did not show significant anti-tumor activity
- tumor growth versus untreated control on day 23 (TC-1 HPV-positive tumors; lipid 75-150 nmole with 20 μg E7 peptide, s.c. day 6, P<0.001): partial tumor inhibition effect
- ability to eradicate HPV-E7 positive tumors in tumor-bearing mice (tumor regression) (TC-1 HPV-positive tumors): results in tumor regression
- induction of human T-cell proliferation (purified human T-cells): induced more T-cell proliferation than S-DOTAP

Compound: CCCCCCCC/C=C\CCCCCCCC(=O)OC[C@@H](C[N+](C)(C)C)OC(=O)CCCCCCC/C=C\CCCCCCCC [S-DOTAP, 1,2-dioleoyl-3-trimethylammoninum propane]
- tumor growth versus untreated control on day 23 (TC-1 HPV-positive tumors; [2]): induced the slowest tumor growth
- tumor growth / tumor regression over the lipid dose series (TC-1 HPV-positive tumors; lipid 3 to 600 nmole with 20 μg E7 peptide, s.c. day 6): did not exhibit the ability to inhibit tumor growth and no tumor regression was observed
- ability to eradicate HPV-E7 positive tumors in tumor-bearing mice (tumor regression) (TC-1 HPV-positive tumors): only limited tumor regression
- dose range that effectively attenuates tumor growth (TC-1 HPV-positive tumors; rodent species, listed as S-enantiomer of DOTAP): effective over this same range of doses
- induction of human T-cell proliferation (purified human T-cells): confirmed

Compound: YMLDLQPETT (Human papillovirus subtype 16 E7 oncogene tumor-associated antigen MHC class I restricted peptide) [E7 peptide, ID; NO]
- inhibition of tumor growth (TC-1 HPV-positive tumors; peptide alone, no lipid (not shown)): did not show any inhibition of tumor growth
